Laboratory results taken from PubChem BioAssay (NCI).
Where “and” joins values, the source holds several entries; their conditions need not be identical. Identical values can stand only once.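 Dose response: 5 concentrations. Exposure: 48 h. Format: 96-well plates. Endpoint: linear interpolation; highest concentration if not reached. Abbreviation: GI50, concentration required for 50% inhibition of growth. TGI: total growth inhibition.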 *1 amine or outer side, *2 acyl side, *3 side chain or, on linkers, in order; H or OH if unused. Where a SMILES comes first, the peptide text is derived from it. Bridges are numbered along the chain shown (N, C = ends). [ ]: non-standard residue; d: D form. ξ: configuration not given here. X4 = CCC(C)C(N[*:1])C(O)CC(=O)O[C@H](C(=O)C(C)C(=O)[*:2])C(C)C; NMeY = CN[C@@H](Cc1ccc(O)cc1)C(=O)O; ξNMeL = CNC(CC(C)C)C(=O)O; ξT = CC(O)C(N)C(=O)O

Legend:
Assay in all cases: NCI anticancer screen, dose series, 48 h
OVCAR-3 ovarian = tested on: OVCAR-3 ovarian
MALME-3M melanoma = tested on: MALME-3M melanoma
MDA-N = tested on: MDA-N
HCT-15 colon = tested on: HCT-15 colon
MDA-MB-231 breast = tested on: MDA-MB-231 breast
U251 CNS = tested on: U251 CNS
T-47D breast = tested on: T-47D breast
SK-OV-3 ovarian = tested on: SK-OV-3 ovarian
ACHN renal = tested on: ACHN renal
A549 NSCLC = tested on: A549 NSCLC
786-0 renal = tested on: 786-0 renal

SMILES	TGI (OVCAR-3 ovarian) [µM]	TGI (MALME-3M melanoma) [µM]	TGI (MDA-N) [µM]	TGI (HCT-15 colon)	TGI (MDA-MB-231 breast) [µM]	TGI (U251 CNS) [µM]	TGI (T-47D breast) [µM]	TGI (SK-OV-3 ovarian) [µM]	TGI (ACHN renal)	TGI (A549 NSCLC)	TGI (786-0 renal)	GI50 (OVCAR-3 ovarian) [µM]	GI50 (MALME-3M melanoma) [µM]	GI50 (HCT-15 colon) [µM]	GI50 (A549 NSCLC) [µM]	GI50 (U251 CNS) [µM]
Nc1nc2c(ncn2C2C=CC(CO)O2)c(=O)[nH]1 (stereo not drawn)	> 100	> 100	> 100	> 100 µM	> 100	> 100	> 100									
CSC1SCC2C(=O)N(C)C3(CC3C)C(=O)OCC(NC(=O)c3nc4ccccc4cc3O)C(=O)NC(C)C(=O)N(C)C1C(=O)N(C)C1(CC1C)C(=O)OCC(NC(=O)c1nc3ccccc3cc1O)C(=O)NC(C)C(=O)N2C (stereo not drawn)	< 0.0001					< 0.0001	> 100	17.2	> 100 µM	20.1 µM						
CCN(CC)CCCNc1ccc2nnn3c4ccc(O)cc4c(=O)c1c23	25.2	26.4	20.9	19.4 µM	20.9	7.61	39.9	22.1	17.3 µM	10.3 µM	19.6 µM					
CSC(=NC1=NC(C(F)(F)F)(C(F)(F)F)N=C(c2ccccc2)O1)SC	63.9	37.7	41.7	33.5 µM	88.1	75.2	24.2	> 100	14.9 µM	> 100 µM	43.5 µM					
CCOC(=O)C(Cc1ccccc1)(Cc1ccc(O)cn1)NC(=O)c1ccccc1 (stereo not drawn)	47.8	48.8	23	> 100 µM	99.6	57.7		> 100	> 100 µM	> 100 µM	82.6 µM					
CSc1ncc2c(n1)-c1ccccc1OC2N1CCCC1 (stereo not drawn)	> 100		> 100	> 100 µM	> 100	> 100	> 100	> 100	> 100 µM	> 100 µM	> 100 µM					
CCOC(=O)c1sc2c(c1OC(=O)c1ccccc1)c(=O)n(-c1ccccc1)c(=S)n2-c1ccccc1	95.6	54.5		> 100 µM	87.2	46.5	> 100	> 100	> 100 µM	64.2 µM	29.4 µM					
NC(=O)CC(Nc1ncc2c(n1)-c1ccccc1OC2)C(=O)O (stereo not drawn)	> 100	> 100	> 100	> 100 µM	> 100	> 100		> 100	> 100 µM	> 100 µM	> 100 µM					
CC(C)n1c(=O)n(-c2ccccc2)n(C(C)(C)C)c1=O	> 100	> 100	> 100	> 100 µM	> 100	> 100		> 100	> 100 µM	> 100 µM	> 100 µM					
NC(CCCCNC(=O)OCc1ccccc1)C(=O)NC(CCCCNC(=O)OCc1ccccc1)C(=O)ON1C(=O)CCC1=O (stereo not drawn)		> 100	> 100	> 100 µM	> 100	> 100	> 100		> 100 µM	> 100 µM	> 100 µM					
O=C(N=Nc1ccccc1Br)NNc1ccccc1Br	> 100	> 100	> 100	> 100 µM	> 100	> 100	> 100		> 100 µM	> 100 µM	> 100 µM					
CCOC(=O)C(C(=O)Cc1ccccc1)c1ccccc1 (stereo not drawn)	> 100	> 100		> 100 µM		> 100		> 100	> 100 µM	> 100 µM	> 100 µM					
CSc1nncc(-c2cc3c(c(SC)n2)CCC3)n1	> 100			> 100 µM	> 100	> 100		> 100	> 100 µM	> 100 µM	> 100 µM					
COc1c/c(=C2/C=c3ccccc3=N2)[nH]/c1=C/c1[nH]c(C)cc1C	1.02	1.62		> 100 µM		1.52				> 100 µM		0.046	0.277	0.0363	0.219	0.0454
COC(=O)C(COC(=O)/C=C/c1ccc(OC(C)=O)c(OC(C)=O)c1)OC(=O)/C=C/c1ccc(OC(C)=O)c(OC(C)=O)c1 (stereo not drawn)	29.9	45.6	21.7	> 100 µM	35.6	20.4			27.8 µM	41.6 µM	24 µM					
CCC(C)C1NC(=O)C(NC(=O)C(CC(C)C)N(C)C(=O)[C@@H]2CCCN2)C(C)OC(=O)[C@H](Cc2ccc(OC)cc2)N(C)C(=O)[C@@H]2CCCN2C(=O)[C@H](CC(C)C)NC(=O)C(C)C(=O)[C@H](C(C)C)OC(=O)CC1O (stereo partly drawn) (H-P[ξNMeL][ξT][X4]LP[NMeY](Me); ester 3-C)	0.00686	0.00847	0.0107	0.224 µM and 0.146 µM		0.0114		0.0177	0.0352 µM and 0.156 µM	0.0246 µM and 0.0289 µM	0.0115 µM and 0.0174 µM					
COC(=O)C1(C(=O)OC)N=C(C)OC1C(C)C (stereo not drawn)	> 100		> 100	> 100 µM		> 100	> 100	> 100	> 100 µM	> 100 µM	> 100 µM					
COc1ccc(NC2Oc3cc4c(cc3C(c3cc(OC)c(O)c(OC)c3)C2C)OCO4)cc1 (stereo not drawn)	> 100	35.2		11.3 µM	11	35.1	> 100		32.1 µM	23.5 µM	37.9 µM					
CCOC(=O)c1cn(-c2ccc(Cl)cc2)c(=O)n2c1nc1ccccc12	> 100			> 100 µM	> 100	> 100	> 100		> 100 µM	> 100 µM	> 100 µM					
COc1ccc(-c2c(C#N)c(-c3ccccc3)n(NS(=O)(=O)c3ccccc3)c(=O)c2C#N)cc1		> 100	> 100	> 100 µM	> 100	> 100		> 100	> 100 µM	> 100 µM	> 100 µM					
CC[N+](C)(CC)CCN1C(=O)c2ccccc2S1(=O)=O	> 100	> 100		> 100 µM	> 100	> 100	> 100	> 100	> 100 µM	> 100 µM	> 100 µM					
